Assay results published in ChEMBL document CHEMBL6127159, “A Bifunctional Sulfide Donor Approach for Ischemic Stroke: Leveraging Butylphthalide as a Carrier for Sulfide Prodrug” (J Med Chem, 2024).
Active and inactive are the calls of the source. No cut-off for these calls is given here.

How the values were obtained:
Liver carboxylesterase [1] = molecular target: T1, Liver carboxylesterase (Sus scrofa, UniProt Q29550); assay: Drug metabolism in PBS assessed as porcine liver esterase mediated compound hydrolysis by measuring half life at 500 uM by UPLC method; assay type: ADME; conditions: pig
T1 sequence (Q29550 whole entry): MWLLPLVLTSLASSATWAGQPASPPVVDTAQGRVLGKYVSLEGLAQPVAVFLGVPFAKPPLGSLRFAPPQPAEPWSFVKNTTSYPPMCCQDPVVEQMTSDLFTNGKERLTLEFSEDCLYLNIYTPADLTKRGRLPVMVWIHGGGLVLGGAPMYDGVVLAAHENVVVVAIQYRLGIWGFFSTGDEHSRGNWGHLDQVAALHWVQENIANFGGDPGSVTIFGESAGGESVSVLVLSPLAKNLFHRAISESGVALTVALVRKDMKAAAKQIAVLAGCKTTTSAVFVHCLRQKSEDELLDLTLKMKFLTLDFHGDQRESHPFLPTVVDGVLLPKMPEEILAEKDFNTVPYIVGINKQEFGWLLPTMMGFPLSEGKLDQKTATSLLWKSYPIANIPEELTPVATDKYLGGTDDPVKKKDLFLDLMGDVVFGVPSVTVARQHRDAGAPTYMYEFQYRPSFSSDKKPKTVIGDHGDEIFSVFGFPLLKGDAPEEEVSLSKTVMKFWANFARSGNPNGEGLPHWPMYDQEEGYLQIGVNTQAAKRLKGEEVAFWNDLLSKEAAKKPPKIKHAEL

[2] = Drug metabolism in Sprague-Dawley rat plasma assessed as 2-(1-acetoxypentyl)benzoic acid level at 80 umol/kg, iv measured after 1 min by LC-MS/MS analysis; assay type: ADME, organism-based; conditions: in vivo, dose 80 µmol/kg
[3] = Drug concentration in Sprague-Dawley rat plasma at 80 umol/kg, iv measured after 1 min by LC-MS/MS analysis; assay type: ADME, organism-based; conditions: dose 80 µmol/kg
[4] = Cytotoxicity against […] PC12 cells upto 500 uM; assay type: toxicity, cell-based; conditions: pc12, 500 µM
[5] = Drug metabolism in Sprague-Dawley rat assessed as Sodium 2-(1-acetoxypentyl)benzothioate level at 80 umol/kg, iv measured after 1 min by LC-MS/MS analysis; assay type: ADME, organism-based; conditions: in vivo, dose 80 µmol/kg
Mus musculus [6] = assay: Neuroprotective activity against MCAO induced C57BL/6J mouse assessed as reduction in infarct area at 100 umol/kg measured after 24 hrs by TTC staining based analysis; assay type: functional; design: scale not given: the % may be the effect or the level left; conditions: dose 100 µmol/kg
[7] = Drug metabolism in Sprague-Dawley rat plasma assessed as 3-butylisobenzofuran-1(3H)-thione level at 80 umol/kg, iv measured after 1 min by LC-MS/MS analysis; assay type: ADME, organism-based; conditions: in vivo, dose 80 µmol/kg
[8] = Downregulation of MDA level in MCAO induced C57BL/6J mouse at 100 umol/kg measured after 24 hrs (reference value: 15.1 +/- 0.5 nmol/mg); assay type: functional; conditions: dose 100 µmol/kg
cells = assay type: functional, PC12; conditions: Homo sapiens, PC-12
Mus musculus [9] = assay: Induction of iron-sulfur cluster related genes transcriptional level in MCAO induced C57BL/6J mouse at 100 umol/kg measured after 24 hrs; assay type: functional, organism-based; conditions: dose 100.0 µmol/kg
Liver carboxylesterase [10] = molecular target: T1, Liver carboxylesterase; assay: Drug metabolism in PBS assessed as porcine liver esterase mediated H2S release at 500 uM by methylene blue assay; assay type: ADME; conditions: pig, isolated protein
[11] = Drug metabolism in Sprague-Dawley rat assessed as Sodium 2-(1-((3-methylbutanoyl)oxy)pentyl)benzothioate level at 80 umol/kg, iv measured after 1 min by LC-MS/MS analysis; assay type: ADME, organism-based; conditions: in vivo, dose 80 µmol/kg
[12] = Drug concentration in Sprague-Dawley rat at 80 umol/kg, iv measured after 1 min by LC-MS/MS analysis; assay type: ADME, organism-based; conditions: in vivo
PC12 = assay: Neuroprotective activity against ischemia/hypoxia induced cell injury in […] PC12 cells assessed as increase in cell viability at 10 to 20 uM by MTT assay; assay type: functional, cell-based; conditions: dose 10-20 µM
Mus musculus [13] = species: Mus musculus; assay: Neuroprotective activity against MCAO induced C57BL/6J mouse cerebral ischemia model assessed as NeuN expression by immunofluorescence assay; assay type: functional, organism-based
Mus musculus [14] = species: Mus musculus; assay: Neuroprotective activity against MCAO induced C57BL/6J mouse cerebral ischemia model assessed as upregulation of genes related to neuroprotection by GSEA; assay type: functional, organism-based
Mus musculus [15] = species: Mus musculus; assay: Neuroprotective activity against MCAO induced C57BL/6J mouse cerebral ischemia model assessed as reduction in nuclear leakage; assay type: functional, organism-based
Mus musculus [16] = species: Mus musculus; assay: Neuroprotective activity against MCAO induced C57BL/6J mouse cerebral ischemia model assessed as appearance of high density nissl bodies in hippocampal region; assay type: functional, organism-based
Mus musculus [17] = assay: Downregulation of abnormal ion channel activation related genes expression in MCAO induced C57BL/6J mouse at 100 umol/kg measured after 24 hrs by GSEA; assay type: functional; conditions: dose 100.0 µmol/kg
Mus musculus [18] = assay: Induction of iron-sulfur cluster related genes transcriptional level in MCAO induced C57BL/6J mouse at 100 umol/kg measured after 24 hrs by GSEA; assay type: functional, organism-based; conditions: dose 100.0 µmol/kg
Mus musculus [19] = species: Mus musculus; assay: Neuroprotective activity against MCAO induced C57BL/6J mouse cerebral ischemia model assessed as cleaved caspase-3 expression by immunofluorescence assay; assay type: functional, organism-based
Mus musculus [20] = species: Mus musculus; assay: Neuroprotective activity against MCAO induced C57BL/6J mouse cerebral ischemia model assessed as appearance of high density nissl bodies in thalamic region; assay type: functional, organism-based
Mus musculus [21] = assay: Downregulation of oxidative stress related genes expression in MCAO induced C57BL/6J mouse at 100 umol/kg measured after 24 hrs by GSEA; assay type: functional, organism-based; conditions: dose 100.0 µmol/kg
Mus musculus [22] = species: Mus musculus; assay: Neuroprotective activity against MCAO induced C57BL/6J mouse cerebral ischemia model assessed as upregulation of genes related to dopaminergic neuron differentiation by GSEA; assay type: functional, organism-based
[23] = Drug metabolism in Sprague-Dawley rat assessed as 3-butylisobenzofuran-1(3H)-one level at 80 umol/kg, iv measured after 1 min by LC-MS/MS analysis; assay type: ADME, organism-based; conditions: in vivo, dose 80 µmol/kg

CCCCC(OC(=O)CC)c1ccccc1C(=O)SSCC(NC(C)=O)C(=O)[O-].[Na+] (stereo not given) gave a half-life at 500 µM (Liver carboxylesterase [1]) of 0.333 h.

With CCCCC(OC(C)=O)c1ccccc1C(=O)SSCC(NC(C)=O)C(=O)O (stereo not given) the Drug metabolism [2] was 44.4 µg/mL, the concentration at 1 min [3] was 151 µg/mL and the Activity [4] was “Non-Toxic”. It also gave a Drug metabolism [5] of 105.9 µg/mL, an Activity (Mus musculus [6]) of 20.6% and a half-life at 500 µM (Liver carboxylesterase [1]) of 2.98 h. For the same molecule, the Drug metabolism [7] was 34.4 µg/mL, the Activity [8] was 9.9 nmol/mg and the viability at 10 µM (cells) was 86.2%. For the same molecule, the Activity (Mus musculus [9]) was “inactive”.

CCCCC(OC(=O)CC(C)C)c1ccccc1C(=O)[S-].[Na+] (stereo not given) showed a half-life at 500 µM (Liver carboxylesterase [1]) of 6.42 h and a Drug metabolism (Liver carboxylesterase [10]) of 31 µM.

In the case of CCCCC(OC(=O)C(C)C)c1ccccc1C(=O)[S-].[Na+] (stereo not given), the half-life at 500 µM (Liver carboxylesterase [1]) is reported as 15 h.

CCCCC(OC(=O)CC(C)C)c1ccccc1C(=O)SSCC(NC(C)=O)C(=O)[O-].[Na+] (stereo not given) gave a Drug metabolism [2] of 41 µg/mL, a half-life at 500 µM (Liver carboxylesterase [1]) of 0.22 h and a Drug metabolism [11] of 201.1 µg/mL. For the same molecule, the Drug uptake ([12]; iv, 1 min, dose 80 µmol/kg) was “Not Active”.

Work on CCCCC(OC(=O)C(C)C)c1ccccc1C(=O)SSCC(NC(C)=O)C(=O)[O-].[Na+] (stereo not given) yielded a half-life at 500 µM (Liver carboxylesterase [1]) of 0.225 h.

For CCCCC(OC(C)=O)c1ccccc1C(=O)O (stereo not given), the Activity (Mus musculus [6]) was 20.6%, the Activity [8] was 9.4 nmol/mg and the viability at 10 µM (cells) was 86.4%.

With CCCCC(OC(C)=O)c1ccccc1C(=O)[S-].[Na+] (stereo not given) the Drug metabolism [2] was 23.6 µg/mL, the concentration at 1 min [3] was 216 µg/mL and the Activity (PC12) was “Active”. The Activity [4] was “Non-Toxic”, the Activity (Mus musculus [13]) was “Active” and the Activity (Mus musculus [6]) was 13.8%. The half-life at 500 µM (Liver carboxylesterase [1]) was 23.3 h, the Activity (Mus musculus [14]) was “Active” and the Activity (Mus musculus [15]) was “Active”. The Drug metabolism [7] was 35.5 µg/mL, the Drug metabolism (Liver carboxylesterase [10]) was 2.8 µM and the Activity [8] was 6.3 nmol/mg. For the same molecule, the Activity (Mus musculus [16]) was “Active”, the Activity (Mus musculus [17]) was “Active” and the Activity (Mus musculus [18]) was “Active”. The viability at 10 µM (cells) was 92.5%, the Activity (Mus musculus [19]) was “Active” and the Activity (Mus musculus [9]) was “Active”. For the same molecule, the Activity (Mus musculus [20]) was “Active”, the Activity (Mus musculus [21]) was “Active” and the Activity (Mus musculus [22]) was “Active”.

Molecule CCCCC1OC(=S)c2ccccc21 (stereo not given) has a Drug metabolism [23] of 1.2 µg/mL and a concentration at 1 min ([12]; Sprague-Dawley, 80 umol/kg, read-out: Drug uptake) of 7.5 µg/mL.
